In patent US11638707B2, “Substituted amino triazoles useful as chitinase inhibitors” (Molecure S.A., priority 2019, dated 2023) one finds IC50 data, which are given here for 19 molecules.

Counter-ions that a name gives are not always drawn. Some results are limits rather than exact numbers.

For one series, the target named is hERG channel (Homo sapiens (Human), UniProt Q12809). Kind of series: Human ERG channel binding assay (fluorescence polarization). The following applies: Table 1; tracer displacement, 4 h at room temperature. As for the experimental part:
Human ERG Channel Binding Assay
Fluorescence polarization assay based on the principle of fluorescence polarization where a red-shifted fluorescent tracer is displaced from the hERG channel by compounds that bind to the channel was used to establish the binding of the compounds to hERG channel. […] Briefly, the compounds in serial dilutions were incubated with a membrane fraction containing hERG channel protein and a high-affinity red fluorescent hERG channel ligand in black 384-well plate. […] The IC50 values were calculated using GraphPad Prism.
In general terms: Polarisation of emitted light reports the rotation of a fluorescent probe.

For another series, the target named is recombinant human CHIT1 (Homo sapiens (Human), UniProt Q13231). As to the kind of experiment: Human CHIT1 activity assay. Type of series: biochemical. The note with it: recombinant human CHIT1, citrate buffer pH 5.2, 37° C., 60 minutes; read-out: hCHIT1, IC50. The method, then: (§1) The assay was run in the 96-well plate format, each reaction in the total volume of 100 μL. 4-methylumbelliferyl β-D-N,N′,N″-triacetylchitotriose was used as a substrate for the enzyme. Upon hydrolysis by CHIT1, the substrate releases 4-methylumbelliferyl (4MU) that, when ionized in basic pH, emits fluorescence at 460 nm. Briefly, 40 μL of a substrate was added to each well, followed by 10 μL of compound dilution and 50 μL of CHIT1 recombinant enzyme solution. The reaction was carried out in citrate buffer, pH 5.2, in the dark, at 37° C. for 60 minutes with shaking. […] The IC50 values were calculated using GraphPad Prism.
Sequence of recombinant human CHIT1 (Q13231 22-466): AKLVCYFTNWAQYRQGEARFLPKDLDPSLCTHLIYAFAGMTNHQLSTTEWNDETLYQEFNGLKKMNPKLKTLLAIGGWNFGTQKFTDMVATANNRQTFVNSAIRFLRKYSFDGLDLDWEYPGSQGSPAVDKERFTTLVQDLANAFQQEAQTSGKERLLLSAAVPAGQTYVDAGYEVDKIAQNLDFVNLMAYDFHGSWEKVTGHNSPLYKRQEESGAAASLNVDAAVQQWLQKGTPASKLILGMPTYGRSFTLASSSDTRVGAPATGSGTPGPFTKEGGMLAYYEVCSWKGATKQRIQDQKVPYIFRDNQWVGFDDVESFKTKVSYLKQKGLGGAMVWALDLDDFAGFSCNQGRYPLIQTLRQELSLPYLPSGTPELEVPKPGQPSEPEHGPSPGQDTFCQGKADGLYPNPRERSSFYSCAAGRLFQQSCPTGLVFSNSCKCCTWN

The next series has as its target recombinant human AMCase (Homo sapiens (Human), UniProt Q9BZP6). As to the kind of experiment: Human AMCase activity assay. It counts as biochemical. The following applies: citrate buffer pH 5.2, 37° C., 60 minutes, read-out: hAMCase, IC50. The method, then:
as §1, with “4-Methylumbelliferyl B-D-N,N′-diacetylchitobioside hydrate” for “4-methylumbelliferyl β-D-N,N′,N″-triacetylchitotriose”, “AMCase,” for “CHIT1,”, “hAMCase” for “CHIT1”

Sequence of recombinant human AMCase (Q9BZP6 22-476): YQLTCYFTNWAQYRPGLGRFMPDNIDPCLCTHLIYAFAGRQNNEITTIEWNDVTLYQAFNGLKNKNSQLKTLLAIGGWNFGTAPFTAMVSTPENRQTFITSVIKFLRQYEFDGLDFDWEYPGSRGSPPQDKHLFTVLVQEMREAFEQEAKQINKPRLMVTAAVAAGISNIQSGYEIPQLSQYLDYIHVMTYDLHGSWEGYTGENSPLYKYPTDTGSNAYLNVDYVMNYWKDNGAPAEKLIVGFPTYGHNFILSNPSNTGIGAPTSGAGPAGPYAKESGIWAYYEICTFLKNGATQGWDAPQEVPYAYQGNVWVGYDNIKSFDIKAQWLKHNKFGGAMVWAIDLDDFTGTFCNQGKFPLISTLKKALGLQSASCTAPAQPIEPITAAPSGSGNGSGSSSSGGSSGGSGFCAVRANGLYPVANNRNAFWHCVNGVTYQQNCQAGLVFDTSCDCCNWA
Sequence of hERG channel (Q12809 whole entry): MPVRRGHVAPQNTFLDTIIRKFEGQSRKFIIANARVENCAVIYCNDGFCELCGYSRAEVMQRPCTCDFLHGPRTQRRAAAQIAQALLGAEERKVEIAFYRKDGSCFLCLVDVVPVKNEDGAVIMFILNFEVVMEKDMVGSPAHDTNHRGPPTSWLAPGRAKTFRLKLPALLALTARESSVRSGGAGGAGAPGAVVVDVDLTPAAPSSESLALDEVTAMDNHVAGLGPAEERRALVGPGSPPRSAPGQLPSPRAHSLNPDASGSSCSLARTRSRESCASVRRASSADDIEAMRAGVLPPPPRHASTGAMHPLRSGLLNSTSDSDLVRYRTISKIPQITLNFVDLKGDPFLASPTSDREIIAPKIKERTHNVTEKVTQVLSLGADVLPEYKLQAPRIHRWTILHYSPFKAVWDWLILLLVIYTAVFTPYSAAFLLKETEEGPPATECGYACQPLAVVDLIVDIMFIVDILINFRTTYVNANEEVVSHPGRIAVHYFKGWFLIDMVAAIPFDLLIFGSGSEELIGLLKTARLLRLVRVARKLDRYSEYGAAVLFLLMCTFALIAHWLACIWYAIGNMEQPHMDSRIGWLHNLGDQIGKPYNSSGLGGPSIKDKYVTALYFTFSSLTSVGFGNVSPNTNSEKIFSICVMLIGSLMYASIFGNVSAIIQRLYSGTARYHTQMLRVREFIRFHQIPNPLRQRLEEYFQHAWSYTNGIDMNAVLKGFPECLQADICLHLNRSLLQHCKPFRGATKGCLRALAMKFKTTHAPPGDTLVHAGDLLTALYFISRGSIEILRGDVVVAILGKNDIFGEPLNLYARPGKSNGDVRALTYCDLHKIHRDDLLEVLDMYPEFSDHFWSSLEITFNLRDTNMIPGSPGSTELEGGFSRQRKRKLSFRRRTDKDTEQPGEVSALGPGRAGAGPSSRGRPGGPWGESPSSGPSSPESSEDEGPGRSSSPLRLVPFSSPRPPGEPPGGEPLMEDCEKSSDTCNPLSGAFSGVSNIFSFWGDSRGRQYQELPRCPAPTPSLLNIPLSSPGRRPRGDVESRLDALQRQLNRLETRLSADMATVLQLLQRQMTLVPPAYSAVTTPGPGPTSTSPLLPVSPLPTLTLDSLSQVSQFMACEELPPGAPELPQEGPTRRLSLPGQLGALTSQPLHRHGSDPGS

Regarding `CC1(C)CC1NC(=O)[C@H]1CN(C2CCN(c3nnc(N)[nH]3)CC2)[C@@H](Cc2ccc(Cl)cc2)CO1` (stereo partly drawn) [Example 23, (2R,5S)-4-(1-(5-amino-4H-1,2,4-triazol-3-yl)piperidin-4-yl)-5-(4-chlorobenzyl)-N-(2,2-dimethylcyclopropyl)morpholine-2-carboxamide 2,2,2-trifluoroacetate], the figures for the IC50 at hERG channel, on recombinant human CHIT1 and on recombinant human AMCase were over 100000 nM, under 100 nM and under 100 nM, respectively.
Consider `Nc1nnc(N2CCC(N3C[C@H](C(=O)NC4CC4)OC[C@@H]3Cc3ccc(Cl)cc3)CC2)[nH]1` [Example 24, (2R,5S)-4-(1-(5-amino-4H-1,2,4-triazol-3-yl)piperidin-4-yl)-5-(4-chlorobenzyl)-N-cyclopropylmorpholine-2-carboxamide 2,2,2-trifluoroacetate], for which the 50% inhibitory concentration (IC50) at hERG channel is over 100000 nM; on recombinant human CHIT1, under 100 nM; at recombinant human AMCase, under 100 nM.
Regarding `Nc1nnc(N2CCC(N3C[C@H](C(=O)NCC(F)F)OC[C@@H]3Cc3ccc(Cl)cc3)CC2)[nH]1` [Example 25, (2R,5S)-4-(1-(5-amino-4H-1,2,4-triazol-3-yl)piperidin-4-yl)-5-(4-chlorobenzyl)-N-(2,2-difluoroethyl)morpholine-2-carboxamide 2,2,2-trifluoroacetate], the values for the concentration for half-maximal inhibition (IC50) on hERG channel, on recombinant human CHIT1 and at recombinant human AMCase were over 100000 nM, under 100 nM and under 100 nM, respectively.
With `Nc1nnc(N2CCC(N3C[C@H](C(=O)NCC(F)(F)F)OC[C@@H]3Cc3ccc(Cl)cc3)CC2)[nH]1` [Example 26, (2R,5S)-4-(1-(5-amino-4H-1,2,4-triazol-3-yl)piperidin-4-yl)-5-(4-chlorobenzyl)-N-(2,2,2-trifluoroethyl)morpholine-2-carboxamide 2,2,2-trifluoroacetate], the values for the concentration for half-maximal inhibition (IC50) at hERG channel, at recombinant human CHIT1 and at recombinant human AMCase were over 100000 nM, 100 to 1000 nM and under 100 nM, respectively.
The like results for `Nc1nnc(N2CCC(N3C[C@H](Cn4cncn4)OC[C@@H]3Cc3ccc(Cl)cc3)CC2)[nH]1` [Example 27, 5-(4-((2R,5S)-2-((1H-1,2,4-triazol-1-yl)methyl)-5-(4-chlorobenzyl)morpholino)piperidin-1-yl)-4H-1,2,4-triazol-3-amine 2,2,2-trifluoroacetate] were, in that order, over 100000 nM, under 100 nM and under 100 nM.
`Nc1nnc(N2CCC(N3C[C@H](CN4CCCC4)OC[C@@H]3Cc3ccc(Cl)cc3)CC2)[nH]1` [Example 28, 5-(4-((2S,5S)-5-(4-chlorobenzyl)-2-(pyrrolidin-1-ylmethyl)morpholino)piperidin-1-yl)-4H-1,2,4-triazol-3-amine 2,2,2-trifluoroacetate]: the IC50 on hERG channel is over 100000 nM; at recombinant human CHIT1 it was under 100 nM; on recombinant human AMCase, under 100 nM.
With `Nc1nnc(N2CCC(N3C[C@H](CN4CCC(F)(F)C4)OC[C@@H]3Cc3ccc(Cl)cc3)CC2)[nH]1` [Example 29, 5-(4-((2S,5S)-5-(4-chlorobenzyl)-2-((3,3-difluoropyrrolidin-1-yl)methyl)-morpholino)piperidin-1-yl)-4H-1,2,4-triazol-3-amine 2,2,2-trifluoroacetate], the IC50 on hERG channel was over 100000 nM; at recombinant human CHIT1 it was under 100 nM; at recombinant human AMCase, under 100 nM.
`Nc1nnc(N2CCC(N3C[C@H](CN4CC[C@H](O)C4)OC[C@@H]3Cc3ccc(Cl)cc3)CC2)[nH]1` [Example 30, (S)-1-(((2S,5S)-4-(1-(5-amino-4H-1,2,4-triazol-3-yl)piperidin-4-yl)-5-(4-chlorobenzyl)morpholin-2-yl)methyl)pyrrolidin-3-ol 2,2,2-trifluoroacetate]: the half-maximal inhibitory concentration (IC50) on hERG channel is over 100000 nM; on recombinant human CHIT1, 100 to 1000 nM; at recombinant human AMCase, under 100 nM.
With `Nc1nnc(N2CCC(N3C[C@H](CN4CC[C@@H](O)C4)OC[C@@H]3Cc3ccc(Cl)cc3)CC2)[nH]1` [Example 31, (R)-1-(((2S,5S)-4-(1-(5-amino-4H-1,2,4-triazol-3-yl)piperidin-4-yl)-5-(4-chlorobenzyl)morpholin-2-yl)methyl)pyrrolidin-3-ol 2,2,2-trifluoroacetate], the IC50 on hERG channel is over 100000 nM; on recombinant human CHIT1 it was 100 to 1000 nM; at recombinant human AMCase it was under 100 nM.
As to `C[S+]([O-])C[C@H]1CN(C2CCN(c3nnc(N)[nH]3)CC2)[C@@H](Cc2ccc(Cl)cc2)CO1` (stereo partly drawn) [Example 32, 5-(4-((2R,5S)-5-(4-chlorobenzyl)-2-((methylsulfinyl)methyl)morpholino)piperidin-1-yl)-4H-1,2,4-triazol-3-amine dihydrochloride], the values for the IC50 on hERG channel, on recombinant human CHIT1 and on recombinant human AMCase were over 100000 nM, under 100 nM and under 100 nM, respectively.
For the molecule `CS(=O)(=O)C[C@H]1CN(C2CCN(c3nnc(N)[nH]3)CC2)[C@@H](Cc2ccc(Cl)cc2)CO1` [Example 33, 5-(4-((2R,5S)-5-(4-chlorobenzyl)-2-((methylsulfonyl)methyl)morpholino)piperidin-1-yl)-4H-1,2,4-triazol-3-amine dihydrochloride], the concentration for half-maximal inhibition (IC50) at hERG channel was over 100000 nM; at recombinant human CHIT1, under 100 nM; on recombinant human AMCase it was under 100 nM.
Take `Cc1cc([C@H]2CN(C3CCN(c4nnc(N)[nH]4)CC3)[C@@H](Cc3ccc(Cl)cc3)CO2)[nH]n1` [Example 34, 5-(4-((2R,5S)-5-(4-chlorobenzyl)-2-(3-methyl-1H-pyrazol-5-yl)morpholino)-piperidin-1-yl)-4H-1,2,4-triazol-3-amine 2,2,2-trifluoroacetate]: the IC50 at hERG channel was 25000 to 100000 nM; on recombinant human CHIT1, under 100 nM; on recombinant human AMCase, under 100 nM.
As for `Nc1nnc(N2CCC(N3C[C@H](Cn4cc(F)cn4)OC[C@@H]3Cc3ccc(Cl)cc3)CC2)[nH]1` [Example 36, 5-(4-((2R,5S)-5-(4-chlorobenzyl)-2-((4-fluoro-1H-pyrazol-1-yl)methyl)-morpholino)piperidin-1-yl)-4H-1,2,4-triazol-3-amine 2,2,2-trifluoroacetate], the half-maximal inhibitory concentration (IC50) at hERG channel was 10000 to 25000 nM; at recombinant human CHIT1 it was under 100 nM; on recombinant human AMCase, under 100 nM.
Regarding `Nc1nnc(N2CCC(N3C[C@H](CN4CC(F)C4)OC[C@@H]3Cc3ccc(Cl)cc3)CC2)[nH]1` [Example 37, 5-(4-((2S,5S)-5-(4-chlorobenzyl)-2-((3-fluoroazetidin-1-yl)methyl)morpholino)-piperidin-1-yl)-4H-1,2,4-triazol-3-amine 2,2,2-trifluoroacetate], the IC50 on hERG channel was 25000 to 100000 nM; on recombinant human CHIT1, under 100 nM; at recombinant human AMCase, under 100 nM.
For `Nc1nnc(N2CCC(N3C[C@H](COCC(F)(F)F)OC[C@@H]3Cc3ccc(Cl)cc3)CC2)[nH]1` [Example 39, 5-(4-((2R,5S)-5-(4-chlorobenzyl)-2-((2,2,2-trifluoroethoxy)methyl)morpholino)-piperidin-1-yl)-4H-1,2,4-triazol-3-amine 2,2,2-trifluoroacetate], the IC50 at hERG channel was 1000 to 10000 nM; at recombinant human CHIT1, under 100 nM; on recombinant human AMCase, under 100 nM.
For `CSC[C@H]1CN(C2CCN(c3nnc(N)[nH]3)CC2)[C@@H](Cc2ccc(Cl)cc2)CO1` [Example 41, 5-(4-((2R,5S)-5-(4-chlorobenzyl)-2-((methylthio)methyl)morpholino)piperidin-1-yl)-4H-1,2,4-triazol-3-amine dihydrochloride], the IC50 is 25000 to 100000 nM on hERG channel, under 100 nM on recombinant human CHIT1 and under 100 nM at recombinant human AMCase.
`Nc1nnc(N2CCC(N3C[C@H](Cn4cc(Cl)cn4)OC[C@@H]3Cc3ccc(Cl)cc3)CC2)[nH]1` [Example 44, 5-(4-((2R,5S)-2-((4-chloro-1H-pyrazol-1-yl)methyl)-5-(4-chlorobenzyl)-morpholino)piperidin-1-yl)-4H-1,2,4-triazol-3-amine 2,2,2-trifluoroacetate]: the values for the IC50 at hERG channel, on recombinant human CHIT1 and at recombinant human AMCase were 1000 to 10000 nM, under 100 nM and under 100 nM, respectively.
As for `CS(=O)(=O)CCNC(=O)[C@H]1CN(C2CCN(c3nnc(N)[nH]3)CC2)[C@@H](Cc2ccc(Cl)cc2)CO1` [Example 45, (2R,5S)-4-(1-(5-amino-4H-1,2,4-triazol-3-yl)piperidin-4-yl)-5-(4-chlorobenzyl)-N-(2-(methylsulfonyl)ethyl)morpholine-2-carboxamide 2,2,2-trifluoroacetate], the IC50 is over 100000 nM at hERG channel, under 100 nM on recombinant human CHIT1 and under 100 nM on recombinant human AMCase.
For the molecule `CNS(=O)(=O)CCNC(=O)[C@H]1CN(C2CCN(c3nnc(N)[nH]3)CC2)[C@@H](Cc2ccc(Cl)cc2)CO1` [Example 46, (2R,5S)-4-(1-(5-amino-4H-1,2,4-triazol-3-yl)piperidin-4-yl)-5-(4-chlorobenzyl)-N-(2-(N-methylsulfamoyl)ethyl)morpholine-2-carboxamide 2,2,2-trifluoroacetate], the IC50 at hERG channel was over 100000 nM; at recombinant human CHIT1, under 100 nM; at recombinant human AMCase, under 100 nM.

Broadly, the IC50 is the concentration that gives 50% inhibition.
